Experimental data reported in patent US20050250837A1, “Use of C-Raf inhibitors for the treatment of neurodegenerative diseases” (priority 2002, published 2005).

Columns and labels:
[1] = tested on: cerebellar granule neurons; test: LK-induced apoptosis of cultured cerebellar granule neurons (MTT viability); format: cell-based, rat; details: for effect of MEK inhibitor on neuroprotection by GW5074: LK + 1 uM GW5074 with 40 uM PD98059 or 10 uM U0126
Experimental: Cultured cerebellar granule neurons undergo apoptosis when switched from HK to medium containing LK (D'Mello et al., 1993). […] Neuronal cultures were switched to medium containing LK, or LK medium containing different doses of GW5074. Cell viability was quantified 24 hours later. Control cultures received HK medium. […] Protection against LK-induced apoptosis is maximal at 1 uM.
Granule neuron cultures were obtained from dissociated cerebella of 7-8 day old rats as described previously (D'Mello et al., 1993). Cells were plated in Basal Eagle's Medium with Earles salts (BME) supplemented with 10% fetal bovine serum (FBS), 25 mM KCl, 2 mM glutamine (Gibco-BRL), and 100 ug/ml gentamycin on dishes coated with poly-L-lys ine in 24-well dishes at a density 1.0×10^6 cells/well, 1.2×10^7 cells/60 mm dish, or 3.0×10^7 cells/100 mm dish. Cytosine arabinofuranoside (10 uM) was added to the culture medium 18-22 hours after plating to prevent replication of non-neuronal cells. Cultures were maintained for 6-7 days prior to experimental treatments. For this, the cells were rinsed once and then maintained in low K^+ medium (serum-free BME medium, 5 mM KCl) or high K^+ medium (serum-free BME medium, supplemented with 20 mM KCl). When used to treat cultures, GW5074 was added at the time when cells were switched to LK medium. Treatment of cultures with pharmacological inhibitors was initiated 15 min prior to rinsing and was maintained through the subsequent incubation in LK or HK medium unless specified otherwise. For MPP+ and methylmercury treatments, 7-8 day old cultures were switched to HK medium containing 200 uM MPP+ or 0.5 uM methylmercury. Viability was assayed 24 hours later.
Neuronal survival was quantified by the MTT assay as previously described (Koulich et al., 2001). Briefly, the tetrazolium salt MTT [3-(4,5-dimethyl-2-thiazolyl)-2,5-diphenyl-2H tetrazolium bromide] was added to the cultures at a final concentration of 1 mg/ml, and incubation of the culture was continued in the CO2 incubator for a further 30 min at 37° C. The assay was stopped by adding lysis buffer [20% SDS in 50% N,N-dimethyl formamide, pH 4.7]. The absorbance was measured specrophotometrically at 570 nm after an overnight incubation at room temperature. The absorbance of a well without cells was used as background and subtracted. Results obtained using the MTT assays were confirmed using the fluorescein-diacetate method for quantification of cell viability, as previously described (D'Mello et al., 1993). Data are presented as mean+/−standard deviation. Statistical analysis was performed using ANOVA and Student-Neuman-Keuls' test.

[2] = tested on: ERK 1/2; test: ERK 1/2 phosphorylation in neuronal cultures, Western blot; format: cell-based, rat; details: LK + 1 uM GW5074 + 40 uM PD98059, 1 hour
Text: Activation of all three Raf proteins results in activation of MEK and ERK.
Survival of cerebellar granule neurons can be maintained by BDNF and this effect of BDNF is mediated by the Raf-MEK-ERK signaling pathway (Bonni et al., 1999). The Raf-MEK-ERK pathway is also involved in promoting survival of other neuronal and normeuronal cell types. A potent blocker of the Raf-MEK-ERK pathway is PD98059 (Alessi et al., 1995). In paradigms in which the Raf-MEK-ERK pathway mediates neuronal survival, such as BDNF-treated cerebellar granule neurons, the presence of […] blocks survival (Bonni et al., 1999). […] Lysates from the cultures were subjected to Western blotting using an antibody specific for phospho-ERK.
(§1) For whole-cell lysates, the culture medium was discarded, the neurons washed twice with ice-cold phosphate-buffered saline (PBS), and lysed in lysis buffer (1% Triton, 20 mM Tris-HCl (pH 7.5), 150 mM NaCl, 1 mM Na2EDTA, 1 mM EGTA, 2.5 mM sodium pyrophosphate, 1 mM beta-glycerophosphate, 1 mM Na3VO4, 1 μg/ml leupeptin and 1× protease inhibitor mixture). Protein concentrations were measured using a Bradford protein assay kit (Bio-Rad), and equivalent amounts of protein were mixed with 6×SDS-PAGE sample buffer. […] After staining with Ponceau S to verify uniformity of protein loads/transfer, the membranes were analyzed for immunoreactivity. […]

[3] = biological target: T1, C-Raf (Rattus norvegicus, UniProt P11345); test: Activity of C-Raf immunoprecipitated from neuronal lysates, GST-MEK substrate, phospho-MEK Western; format: cell-based
T1 construct: Activities of endogenous C-Raf and B-Raf activity was assayed by measuring the ability of kinase immunoprecipitated from neuronal lysates; endogenous in cells; host or cells: primary rat cerebellar granule neurons
Experimental: The immunoprecipitated C-Raf was used in in vitro kinase assays using GST-MEK as substrate and the reaction products subjected to Western analysis. Phosphorylation of MEK was detected using a phospho-MEK antibody. […] After 1 hour of treatment, the cultures were lysed, C-Raf immunoprecipitated from the lysate and used in an in vitro kinase assay with MEK as substrate. The reaction mixture was subjected to Western analysis using a phospho-MEK antibody as probe.
(Hall-Jackson et al., 1999). […] Lysates from the cultures were used in a kinase reaction with MEK as substrate. […] Phosphorylation of MEK was detected by Western blot analysis using an phospho-MEK antibody and the same blot was reprobed with a C-Raf antibody.
After treatment, cultures of 7-8-day old neurons were washed twice with ice-cold PBS and lysed in ice cold lysis buffer. The lysates were centrifuged for 10 min at 10,000 rpm at 4° C. Protein concentrations of the supernatant were measured using a Bradford protein assay kit (Bio-Rad), and equivalent amounts of protein were incubated overnight with primary antibody (1.0-2 ug) and then for 2 h with 20 ul Protein A/G PLUS-Agarose (Santa Cruz Biotech.) Immunoprecipitates were collected by centrifugation at 2,500 rpm for 5 min at 4° C. and washed three times with lysis buffer, and pellets resuspended in electrophoresis sample buffer (187.5 mM Tris-HCl (pH 6.8 at 25° C.), 6% SDS, 30% glycerol, 150 mM DTT, 0.03% bromophenol blue), boiled for 4 min and subjected to SDS-polyacrylamide gel electrophoresis.
Activities of endogenous C-Raf and B-Raf activity was assayed by measuring the ability of kinase immunoprecipitated from neuronal lysates to phosphorylate a kinase-dead recombinant GST-MEK1 substrate. Following immunoprecipitation and multiple washes with lysis buffer, lysis buffer supplemented with 350 mM NaCl, and kinase buffer (25 mM HEPES pH 7.4 and 10 mM MgCl2), in vitro kinase assays are performed on the immune complexes using purified recombinant GST-MEK1 K97M protein as a substrate in kinase buffer supplemented with 85 μM ATP for 35 minutes at 30° C. Reactions are stopped by the addition of 3×SDS sample buffer and boiled for five minutes. Proteins are resolved by SDS-PAGE and subjected to Western blotting. The level of phosphorylated MEK is detected by a phospho-MEK antibody.

[4] = tested on: Akt; test: Akt phosphorylation (Ser473) in neuronal cultures, Western blot; format: cell-based, rat; details: added to cultures already switched to LK
Experimental: The best-studied anti-apoptotic pathway in neurons is the PI-3 kinase—Akt signaling pathway (D'Mello et al., 1997; Dudek et al., 1997; Miller et al, 1997a). IGF-1, a potent survival-promotic factor for granule neurons mediates its effect by activating the PI-3 kinase-Akt pathway (Datta et al., 1997; Dudek et al., 1997; D'Mello et al., 1998). […] Switching cerebellar granule neurons from serum-containing HK medium in which they are cultured and allowed to mature, to serum-free LK or HK medium, causes a rapid downregulation of Akt phosphorylation and activity, which can be prevented by IGF-1 (Kumari et al., 2001). […] The same blot was reprobed with an antibody against phospho-Gskβ. Also loaded on the gel were lysates from untreated cultures (maintained in medium containing serum and high K+) and a culture treated for 1 hour with 25 ng/ml IGF-1. […] GSK3βis a proapoptotic molecule that is activated during apoptosis in many neuronal and normeuronal systems. Under survival promoting conditions GSK3β is kept inactivated by phosphorylation, a modification that can be induced by Akt. […] Another proapoptotic molecule that is phosphorylated and inactivated by Akt is the transcription factor, Forkhead (Linseman et al., 2002). […] Switching of neurons to LK medium leads to a rapid downregulation of Akt activity within 2 hours.
as §1

[5] = tested on: cerebellar granule neurons; test: Apoptosis of neurons infected with adenoviral dominant-negative Akt; format: cell-based, rat; details: LK + 1 uM GW5074 or 25 ng/ml IGF-1
Text: Five day old neuronal cultures were infected with adenoviral vectors expressing either GFP or hemagluttinin (HA)-tagged dominant-negative Akt. […] Infected neurons were detected by positive staining for GFP or HA by immunocytochemistry. The proportion of apoptotic cells (condensed or fragmented nuclei) as a percentage of total infected neurons was quantified following DAPI-staining.
DnAkt and control recombinant adenovirus expressing green fluorescent protein (Ad-GFP) are propagated in HEK293T cells and purified by cesium chloride density gradient centrifugation. After quantification of titer, virus at an MOI of 10 are used to infect granule neuron cultures 5 days after plating by direct addition to the medium. Treatments are performed 24 hours after addition of virus.

T1 sequence (P11345 whole entry): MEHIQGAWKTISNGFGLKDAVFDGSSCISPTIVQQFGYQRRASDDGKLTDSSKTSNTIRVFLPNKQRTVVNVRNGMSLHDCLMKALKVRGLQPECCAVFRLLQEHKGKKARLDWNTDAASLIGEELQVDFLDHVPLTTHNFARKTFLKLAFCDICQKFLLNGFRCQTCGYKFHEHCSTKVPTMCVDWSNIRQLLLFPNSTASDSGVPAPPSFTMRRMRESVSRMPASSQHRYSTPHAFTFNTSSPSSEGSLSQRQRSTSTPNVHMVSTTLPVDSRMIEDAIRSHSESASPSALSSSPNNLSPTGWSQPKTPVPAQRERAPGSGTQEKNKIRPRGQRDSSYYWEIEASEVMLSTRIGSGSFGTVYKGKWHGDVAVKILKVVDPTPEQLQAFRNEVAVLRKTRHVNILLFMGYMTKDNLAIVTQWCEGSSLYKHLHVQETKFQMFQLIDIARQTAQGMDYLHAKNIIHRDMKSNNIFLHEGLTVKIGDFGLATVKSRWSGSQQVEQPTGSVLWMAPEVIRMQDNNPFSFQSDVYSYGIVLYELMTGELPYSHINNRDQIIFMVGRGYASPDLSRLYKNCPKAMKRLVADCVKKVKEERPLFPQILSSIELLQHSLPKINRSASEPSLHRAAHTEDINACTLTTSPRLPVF

## CC(C)=CCC/C(C)=C/CC/C(C)=C/CSc1ccccc1C(=O)O [FTS, S-trans, trans-farnesylthiosalicylic acid]
[1]; LK + 1 uM GW5074 + 10 uM FTS, 24 hour
  effect of Ras antagonist on neuroprotection by GW5074: blocks the neuroprotective effect of GW5074

## COc1cccc(-c2cc(=O)c3ccccc3o2)c1N [PD98059, reference compound]
[2]
  effect on stimulation of ERK by GW5074: blocks the stimulation of ERK by GW5074
[1]
  effect of MEK inhibitor on neuroprotection by GW5074: no effect on the neuroprotective effect of GW5074

## Cc1ccc(NC(=O)c2cccc(N(C)C)c2)cc1NC(=O)c1ccc(O)cc1 [ZM336372, N-[5-(3-Dimethylaminobenzamido)-2-methylphenyl]-4-hydroxybenzamide, reference compound]
[3]; 10 uM ZM336372 added to kinase reaction mixture
  effect on immunoprecipitated C-Raf when added in vitro: inhibited in vitro by ZM336372
[3]; LK + 50 uM ZM336372, 1 hour
  activity of C-Raf immunoprecipitated from treated cultures: elevated activity
[1]; LK medium containing 100 uM ZM336372
  inhibition of LK-mediated apoptosis: inhibits LK-mediated apoptosis

## IGF-1: a potent survival-promotic factor for granule neurons
[4]
  de novo Akt activation after downregulation in LK: robust increase in Akt phosphorylation
[5]
  effect of dominant-negative Akt on survival promotion: reduces the survival-promoting effect of IGF-1

## N#CC(=C(/N)Sc1ccccc1N)/C(C#N)=C(\N)Sc1ccccc1N [U0126]
[1]
  effect of MEK inhibitor on neuroprotection by GW5074: failed to reduce survival by GW5074
